Patent publication US7230116B2, “Pyrazolyl-substituted heterocycles and their use as phytosanitary products” (Bayer CropScience, AG, priority 2001, dated 2007)

Experiments:
[1] = test system: cotton aphid (Aphis gossypii); assay: Aphis gossypii test (cotton leaves dipped); type: in vivo; conditions: 500 ppm active compound
Procedure: (§1) Aphis gossypii Test [table] To produce a suitable preparation of active compound, 1 part by weight of active compound is mixed with the stated amounts of solvent and emulsifier, and the concentrate is diluted with emulsifier-containing water to the desired concentration. Cotton leaves (Gossypium hirsutum) which are heavily infested by the cotton aphid (Aphis gossypii) are treated by being dipped into the preparation of active compound of the desired concentration. After the desired period of time, the kill in % is determined. 100% means that all aphids have been killed; 0% means that none of the aphids have been killed.

[2] = test system: caterpillars of the diamondback moth (Plutella xylostella); assay: Plutella test; type: in vivo; conditions: 500 ppm active compound
Procedure: (§2) Plutella Test [table] To produce a suitable preparation of active compound, 1 part by weight of active compound is mixed with the stated amounts of solvent and emulsifier, and the concentrate is diluted with emulsifier-containing water to the desired concentration. Cabbage leaves (Brassica oleracea) are treated by being dipped into the preparation of active compound of the desired concentration and are populated with caterpillars of the diamondback moth (Plutella xylostella) while the leaves are still moist. After the desired period of time, the kill in % is determined. 100% means that all caterpillars have been killed; 0% means that none of the caterpillars have been killed.

[3] = test system: caterpillars of the armyworm (Spodoptera frugiperda); assay: Spodoptera frugiperda test; type: in vivo; conditions: 500 ppm active compound
Procedure: as §2, with “Spodoptera frugiperda” for “Plutella”, “armyworm (Spodoptera frugiperda)” for “diamondback moth (Plutella xylostella)”

Abutilon = assay: Post-emergence test, greenhouse; type: in vivo; conditions: 250 g ai/ha, after three weeks
Procedure: (§3) Post-Emergence Test [table] To produce a suitable preparation of active compound, 1 part by weight of active compound is mixed with the stated amount of solvent, the stated amount of emulsifier is added and the concentrate is diluted with water to the desired concentration. Test plants of a height of 5-15 cm are sprayed with the preparation of active compound such that the particular amounts of active compound desired are applied per unit area. The concentration of the spray liquor is chosen such that the particular amounts of active compound desired are applied in 1000 l of water/ha. After three weeks, the degree of damage to the plants is rated in % damage in comparison to the development of the untreated control. The figures denote: [table]

Lolium = assay: Post-emergence test, greenhouse; type: in vivo; conditions: after three weeks
Procedure: as §3

Oilseed rape = assay: Post-emergence test, greenhouse; type: in vivo; conditions: 125 g ai/ha, after three weeks
Procedure: as §3

Avena fatua = assay: Post-emergence test, greenhouse; type: in vivo; conditions: after three weeks
Procedure: as §3

Viola = assay: Post-emergence test, greenhouse; type: in vivo; conditions: 125 g ai/ha, after three weeks
Procedure: as §3

Setaria = assay: Post-emergence test, greenhouse; type: in vivo; conditions: after three weeks
Procedure: as §3

Bromus = assay: Post-emergence test, greenhouse; type: in vivo; conditions: after three weeks
Procedure: as §3

Alopecurus = assay: Post-emergence test, greenhouse; type: in vivo; conditions: after three weeks
Procedure: as §3

Sugarbeet = assay: Post-emergence test, greenhouse; type: in vivo; conditions: 250 g ai/ha, after three weeks
Procedure: as §3

[4] = test system: greenhouse red spider mite (Tetranychus urticae); assay: Tetranychus test (OP-resistant/dip treatment); type: in vivo; conditions: 100 ppm active compound, OP-resistant, dip treatment
Procedure: Tetranychus Test (OP-Resistant/Dip Treatment)
To produce a suitable preparation of active compound, 1 part by weight of active compound is mixed with the stated amounts of solvent and emulsifier, and the concentrate is diluted with emulsifier-containing water to the desired concentration.
Bean plants (Phaseolus vulgaris) which are heavily infested by all stages of the greenhouse red spider mite (Tetranychus urticae) are treated by being dipped into a preparation of active compound of the desired concentration.
After the desired period of time, the effect in % is determined. 100% means that all spider mites have been killed; 0% means that none of the spider mites have been killed.

[5] = test system: peach aphid (Myzus persicae); assay: Myzus test (cabbage leaves dipped); type: in vivo; conditions: 500 ppm active compound
Procedure: as §1, with “Myzus” for “Aphis gossypii”, “Cabbage” for “Cotton”, “(Brassica oleracea)” for “(Gossypium hirsutum)”, “peach” for “cotton”, “(Myzus persicae)” for “(Aphis gossypii)”

[6] = test system: larvae of the mustard beetle (Phaedon cochleariae); assay: Phaedon larvae test; type: in vivo; conditions: 500 ppm active compound
Procedure: as §2, with “Phaedon larvae Test” for “Plutella Test”, “with larvae” for “with caterpillars”, “the mustard beetle (Phaedon cochleariae)” for “the diamondback moth (Plutella xylostella)”, “all beetle larvae” for “all caterpillars”, “the beetle larvae” for “the caterpillars”

Sinapis = assay: Post-emergence test, greenhouse; type: in vivo; conditions: 250 g ai/ha, after three weeks
Procedure: as §3

Amaranthus = assay: Post-emergence test, greenhouse; type: in vivo; conditions: after three weeks
Procedure: as §3

[7] = logP determination by HPLC (reversed-phase C18), EEC Directive 79/831 Annex V.A 8; type: physicochemical; conditions: HPLC reversed-phase column (C 18), 43° C.; for chromatographic logP: reversed-phase C18 HPLC column, pH 2.3
Procedure: The logP values given for the Examples (I-2-A-a) were determined in accordance with EEC Directive 79/831 Annex V.A 8 by HPLC (High Performance Liquid Chromatography) using a reversed-phase column (C 18). Temperature: 43° C. • (a) Mobile phases for the determination in the acidic range: 0.1% aqueous phosphoric acid, acetonitrile; linear gradient from 10% acetonitrile to 90% acetonitrile. • (b) Mobile phases for the determination in the neutral range: 0.01 molar aqueous phosphate buffer solution, acetonitrile; linear gradient from 10% acetonitrile to 90% acetonitrile. Calibration was carried out using unbranched alkan-2-ones (of 3 to 16 carbon atoms) with known logP values (determination of the logP values by the retention times using linear interpolation between two successive alkanones).

COC1CCC2(CC1)NC(=O)C(n1nc(-c3ccc(Cl)cc3)cc1C)=C2O (single isomer, unassigned) [Example I-1-A-a-4]
Kill rate in % after 6d [1]: 95%
Kill rate in % after 7d [2]: 100%
Kill rate in % after 7d [3]: 100%
% damage, Abutilon (Abutilon): 80%
% damage, Lolium (Lolium; 125 g ai/ha): 100%
% damage, Lolium (Lolium; 250 g ai/ha): 100%
% damage, Oilseed rape (Oilseed rape): 0%
% damage, Avena fatua (Avena fatua; 125 g ai/ha): 100%
% damage, Avena fatua (Avena fatua; 250 g ai/ha): 100%
% damage, Viola (Viola): 100%
% damage, Setaria (Setaria; 125 g ai/ha): 100%
% damage, Setaria (Setaria; 250 g ai/ha): 100%
% damage, Bromus (Bromus; 125 g ai/ha): 100%
% damage, Bromus (Bromus; 250 g ai/ha): 100%
% damage, Alopecurus (Alopecurus; 125 g ai/ha): 100%
% damage, Alopecurus (Alopecurus; 250 g ai/ha): 100%
% damage, Sugarbeet (Sugarbeet): 10%
Kill rate in % after 7d [4]: 95%
Kill rate in % after 6d [5]: 90%
Kill rate in % after 7d [6]: 100%

CCOC(=O)OC1=C(n2nc(-c3ccc(Cl)cc3)cc2C)C(=O)NC12CCC(OC)CC2 (centres unmarked) [Example I-1-A-c-1]
Kill rate in % after 7d [3]: 100%
% damage, Abutilon (Abutilon): 95%
% damage, Avena fatua (Avena fatua; 250 g ai/ha): 100%
% damage, Sinapis (Sinapis): 80%
% damage, Amaranthus (Amaranthus; 250 g ai/ha): 95%
% damage, Setaria (Setaria; 250 g ai/ha): 100%
% damage, Alopecurus (Alopecurus; 250 g ai/ha): 100%
Kill rate in % after 7d [4]: 98%
Kill rate in % after 7d [6]: 90%

CCOC(=O)OC1=C(c2c(C)nn(-c3ccc(Cl)cc3)c2C)C(=O)NC12CCC(OC)CC2 (centres unmarked) [Example I-1-B-c-1]
% damage, Avena fatua (Avena fatua; 2000 g ai/ha): 90%
% damage, Amaranthus (Amaranthus; 2000 g ai/ha): 90%
% damage, Setaria (Setaria; 2000 g ai/ha): 95%
% damage, Alopecurus (Alopecurus; 2000 g ai/ha): 90%

COC1CCC2(CC1)OC(=O)C(n1nc(-c3ccc(Cl)cc3)cc1C)=C2O (centres unmarked) [Example I-2-A-a-1]
chromatographic logP [7]: 2.05
Kill rate in % after 7d [4]: 100%
Kill rate in % after 6d [5]: 90%

Cc1cc(-c2ccc(Cl)cc2)nn1C1=C(O)C2(CCC(C(F)(F)F)CC2)OC1=O (centres unmarked) [Example I-2-A-a-2]
logP (pH 2.3) [7]: 2.74

Cc1cc(-c2ccc(Cl)cc2)nn1C1=C(O)C(C)(C)OC1=O [Example I-2-A-a-3]
logP (pH 2.3) [7]: 1.74

CCOC1CCC2(CC1)OC(=O)C(n1nc(-c3ccc(Cl)cc3)cc1C)=C2O (centres unmarked) [Example I-2-A-a-4]
logP (pH 2.3) [7]: 2.46

Cc1cc(-c2ccc(Cl)cc2)nn1C1=C(O)C2(Cc3ccccc3C2)OC1=O [Example I-2-A-a-5]
logP (pH 2.3) [7]: 2.35

Cc1cc(-c2ccc(Cl)cc2)nn1C1=C(O)C2(CCCOC2)OC1=O (centres unmarked) [Example I-2-A-a-6]
logP (pH 2.3) [7]: 1.49

Cc1cc(-c2ccc(Cl)cc2)nn1C1=C(O)C2(CCOCC2)OC1=O [Example I-2-A-a-7]
logP (pH 2.3) [7]: 1.55

CCC1(C)OC(=O)C(n2nc(-c3ccc(Br)cc3)cc2C)=C1O (centres unmarked) [Example I-2-A-a-8]
logP (pH 2.3) [7]: 2.70

Cc1cc(-c2ccccc2)nn1C1=C(O)C(C)(C(C)C)OC1=O (centres unmarked) [Example I-2-A-a-9]
logP (pH 2.3) [7]: 1.50

Cc1cc(-c2cccc(C(F)(F)F)c2)nn1C1=C(O)C(C)(CC(C)(C)C)OC1=O (centres unmarked) [Example I-2-A-a-10]
logP (pH 2.3) [7]: 2.92

Cc1cc(-c2ccc(Cl)cc2)nn1C1=C(OC(=O)C(C)(C)C)C2(CCCOC2)OC1=O (centres unmarked) [Example I-2-A-b-1]
chromatographic logP [7]: 4.32

CCOC(=O)C1(OC(=O)Cn2nc(-c3ccc(Cl)cc3)cc2C)CCC(OC)CC1 (centres unmarked) [Example III-A-1]
chromatographic logP [7]: 4.11
